One data set deals with rOatp1a4. The note with it: in vitro, cited from earlier work.
Data set [1] is described as follows: Gadoxetate PBPK model transport parameters. Also noted: species or system rat. The text has this: A previously developed reduced PBPK model of gadoxetate was used in the current study. The PBPK model (Figure 1) is composed of seven compartments: blood, spleen, splanchnic organs, liver interstitial space, hepatocytes, rest of the body (ROB) vascular, and extravascular space. In the ROB compartment, muscles, fat, bones, and skin, among others, are represented.
A permeability-limited liver model was applied to describe the gadoxetate active uptake into the hepatocytes, as per Equation (1). (1) Vliv,extrdcliv,extr/dt=inputsplan+inputart−Qhcliv,extr/Kliv, extr−b−CLuptake· cliv,extr−CLpassive(cliv,extr−fu,liv, cell cliv,cell)Vliv,celldcliv,cell/dt=CLuptake cliv,extr+CLpassive(cliv,extr−fu,liv, cell cliv,cell)−CLbiliary fu,liv,cell cliv,cell […]
cliv,extr , cliv,cell [μmol/L] and Vliv,extr , Vliv,int [L] are the gadoxetate concentrations ( c ) and volumes ( V ) of the liver extracellular space and hepatocytes, respectively. […] Details of the model development, relations between concentrations in PBPK compartments and measured ΔR1 , parameters identification, and performance were described previously. […]

Usually IC50 stands for the concentration at which inhibition is half-maximal. A word on the Ki: it is the dissociation constant of the complex between target and ligand, obtained from inhibition or displacement. In the case of `CO[C@H]1/C=C/O[C@@]2(C)Oc3c(C)c(O)c4c(O)c(c(/C=N/N5CCN(C)CC5)c(O)c4c3C2=O)NC(=O)/C(C)=C\C=C\[C@H](C)[C@H](O)[C@@H](C)[C@@H](O)[C@@H](C)[C@H](OC(C)=O)[C@@H]1C` [Rifampicin], the IC50 in the data set with rOatp1a4 (read-out: IC50 (µM) rOatp1a4) was 1.3 µM. The Ki on rOatp1a4 (read-out: Ki (µM) rOatp1a4) is 2.9 µM.

Turning to `CCOc1ccc(C[C@@H](CN(CCN(CC(=O)[O-])CC(=O)[O-])CC(=O)[O-])N(CC(=O)[O-])CC(=O)[O-])cc1.[Gd+3].[H+].[H+]` [gadoxetate, Gadoxetate], the “CLbiliary, new value in unified units” value in data set [1] (total concentration in hepatocytes) is recorded as 0.756 mL/min. In data set [1] (total concentration in the liver interstitial fluid), the “CLuptake, new value in unified units” value turned out to be 36.2 mL/min.

These data come from paper PMC10057977, “Use of In Vivo Imaging and Physiologically-Based Kinetic Modelling to Predict Hepatic Transporter Mediated Drug–Drug Interactions in Rats” (Pharmaceutics, 2023).
